# Results published in patent US10322995B2, “Substituted cyano cycloalkyl penta-2,4-dienes, cyano cycloalkyl pent-2-en-4-ynes, cyano heterocyclyl penta-2,4-dienes and cyano heterocyclyl pent-2-en-4-ynes as active substances against abiotic plant stress” (BAYER CROPSCIENCE AKTIENGESELLSCHAFT, priority 2014, dated 2019).
# Experiments:
# Design in all cases: key: 0: no positive effect; 10: slight positive effect; 20: clear positive effect; 30: strong positive effect
# [1] = system: Triticum aestivum (TRZAS); test: In vivo analyses Part B: drought stress, appearance vs stressed control plants in categories (TRZAS); conditions: spray application 250 g/ha, category vs stressed control plants, 2-3 pots
# Protocol: Seeds of monocotyledonous and dicotyledonous crop plants were sown in sandy loam in plastic pots, covered with soil or sand and cultivated in a greenhouse under good growth conditions. The test plants were treated at the early leaf stage (BBCH10-BBCH13). To assure uniform water supply before commencement of stress, the potted plants were supplied with water by dam irrigation prior to substance application. The inventive compounds, formulated in the form of wettable powders (WP), were sprayed onto the green parts of the plants as an aqueous suspension at an equivalent water application rate of 600 I/ha with addition of 0.2% wetting agent (e.g. agrotin). Substance application was followed immediately by stress treatment of the plants. Drought stress was induced by gradual drying out under the following conditions: “Day”: 14 hours with illumination at 26-30° C. “Night”: 10 hours without illumination at 18-20° C. The duration of the respective stress phases was guided mainly by the condition of the stressed control plants. It was ended (by re-irrigating and transfer to a greenhouse with good growth conditions) as soon as irreversible damage was observed on the stressed control plants. The end of the stress phase was followed by an about 4-7-day recovery phase, during which the plants were once again kept under good growth conditions in a greenhouse. The duration of the recovery phase was guided mainly by when the trial plants had attained a state which enabled visual scoring of potential effects, and was therefore variable. Once this juncture had been reached, the appearance of the plants treated with test substances was recorded in comparison to the stressed control plants by the following categories: [table] In order to rule out any influence on the effects observed by any fungicidal or insecticidal action of the test compounds, it was additionally ensured that the tests proceeded without fungal infection or insect infestation. For each substance and dosage, 2-3 pots were treated and evaluated. TRZAS=Triticum aestivum
# [2] = system: Brassica napus (BRSNS); test: In vivo analyses Part B: drought stress, appearance vs stressed control plants in categories (BRSNS); conditions: spray application 250 g/ha, category vs stressed control plants, 2-3 pots
# Protocol: Seeds of monocotyledonous and dicotyledonous crop plants were sown in sandy loam in plastic pots, covered with soil or sand and cultivated in a greenhouse under good growth conditions. The test plants were treated at the early leaf stage (BBCH10-BBCH13). To assure uniform water supply before commencement of stress, the potted plants were supplied with water by dam irrigation prior to substance application. The inventive compounds, formulated in the form of wettable powders (WP), were sprayed onto the green parts of the plants as an aqueous suspension at an equivalent water application rate of 600 I/ha with addition of 0.2% wetting agent (e.g. agrotin). Substance application was followed immediately by stress treatment of the plants. Drought stress was induced by gradual drying out under the following conditions: “Day”: 14 hours with illumination at 26-30° C. “Night”: 10 hours without illumination at 18-20° C. The duration of the respective stress phases was guided mainly by the condition of the stressed control plants. It was ended (by re-irrigating and transfer to a greenhouse with good growth conditions) as soon as irreversible damage was observed on the stressed control plants. The end of the stress phase was followed by an about 4-7-day recovery phase, during which the plants were once again kept under good growth conditions in a greenhouse. The duration of the recovery phase was guided mainly by when the trial plants had attained a state which enabled visual scoring of potential effects, and was therefore variable. Once this juncture had been reached, the appearance of the plants treated with test substances was recorded in comparison to the stressed control plants by the following categories: [table] In order to rule out any influence on the effects observed by any fungicidal or insecticidal action of the test compounds, it was additionally ensured that the tests proceeded without fungal infection or insect infestation. For each substance and dosage, 2-3 pots were treated and evaluated. BRSNS=Brassica napus
# [3] = system: Zea mays (ZEAMX); test: In vivo analyses Part B: drought stress, appearance vs stressed control plants in categories (ZEAMX); conditions: spray application 25 g/ha, category vs stressed control plants, 2-3 pots
# Protocol: Seeds of monocotyledonous and dicotyledonous crop plants were sown in sandy loam in plastic pots, covered with soil or sand and cultivated in a greenhouse under good growth conditions. The test plants were treated at the early leaf stage (BBCH10-BBCH13). To assure uniform water supply before commencement of stress, the potted plants were supplied with water by dam irrigation prior to substance application. The inventive compounds, formulated in the form of wettable powders (WP), were sprayed onto the green parts of the plants as an aqueous suspension at an equivalent water application rate of 600 I/ha with addition of 0.2% wetting agent (e.g. agrotin). Substance application was followed immediately by stress treatment of the plants. Drought stress was induced by gradual drying out under the following conditions: “Day”: 14 hours with illumination at 26-30° C. “Night”: 10 hours without illumination at 18-20° C. The duration of the respective stress phases was guided mainly by the condition of the stressed control plants. It was ended (by re-irrigating and transfer to a greenhouse with good growth conditions) as soon as irreversible damage was observed on the stressed control plants. The end of the stress phase was followed by an about 4-7-day recovery phase, during which the plants were once again kept under good growth conditions in a greenhouse. The duration of the recovery phase was guided mainly by when the trial plants had attained a state which enabled visual scoring of potential effects, and was therefore variable. Once this juncture had been reached, the appearance of the plants treated with test substances was recorded in comparison to the stressed control plants by the following categories: [table] In order to rule out any influence on the effects observed by any fungicidal or insecticidal action of the test compounds, it was additionally ensured that the tests proceeded without fungal infection or insect infestation. For each substance and dosage, 2-3 pots were treated and evaluated. ZEAMX=Zea mays
SMILES,Effect (TRZAS) [1],Effect (BRSNS) [2],Effect (ZEAMX) [3]
CCCOC(=O)/C=C(\C#CC(O)(C(C)C)C1(C#N)CC1)CC (stereo not shown) [I.1-605],20,20,
CC/C(C#CC(O)(c1ccccc1)C1(C#N)CC1)=C/C(=O)OC (stereo not shown) [I.1-202],20,20,10-20
CCCOC(=O)/C=C(\C#CC(O)(c1ccccc1)C1(C#N)CC1)CC (stereo not shown) [I.1-609],10,10-20,20
CCOC(=O)/C=C(\C#CC(O)(C(C)C)C1(C#N)CC1)CC (stereo not shown) [I.1-103],10-20,30,10-20
COC(=O)/C=C(/C)C#CC(O)(C(C)C)C1(C#N)CC1 (stereo not shown) [I.1-135],30,30,
